Results: US9174925B2 (priority 2011, dated 2015)
Read-outs that look alike come from different tables or passages of the source.

Key:
[1] = reported in literature (Hirota M. et al., 1979); cited from earlier work
Epstein-Barr virus = details: reported in literature (Hirota M. et al., 1979); cited from earlier work
NK92 cells = format: cell-based, human

Compound: CCCCCCCCCCCCCCCC(=O)O[C@@H]1[C@@H](C)[C@@]2(O)[C@@H](C=C(CO)C[C@]3(O)C(=O)C(C)=C[C@@H]23)[C@H]2[C@]1(OC(C)=O)[C@]2(C)CO [Compound 4, 12-O-hexadecanoyl-16-hydroxyphorbol-13-acetate]
- piscicidal effects [1]: piscicidal effects
- Epstein-Barr virus activation (Epstein-Barr virus): Epstein-Barr virus activation

Compound: CCCCCCCCCCCCCCCC(=O)OC1C(C)C2(O)C(C(=O)C(CO)=CC3(O)C(=O)C(C)=CC32)C2C(C)(C)C12OC(C)=O (centres unmarked) [Compound 2, 12-O-hexadecanoyl-7-oxo-5-ene-phorbol-13-acetate]
- activity for inducing IFN-γ production (NK92 cells; 1.6 μM, FIG. 7): had activity for inducing IFN-γ production

Compound: CCCCCCCCCCCCCCCC(=O)O[C@@H]1[C@@H](C)[C@@]2(O)[C@@H](C(=O)C(CO)=C[C@]3(O)C(=O)C(C)=C[C@@H]23)[C@H]2[C@]1(OC(C)=O)[C@@]2(C)CO [Compound 1, 12-O-hexadecanoyl-7-oxo-5-ene-16-hydroxyphorbol-13-acetate]
- activity for inducing IFN-γ production (NK92 cells; 40 nM, FIG. 8): high activity for inducing IFN-γ production

Compound: CCCCCCCCCCCCCCCC(=O)O[C@@H]1[C@@H](C)[C@]2(O)[C@@H]3C=C(C)C(=O)[C@@H]3CC(CO)=C[C@H]2[C@H]2[C@]1(OC(C)=O)[C@@]2(C)CO [Compound 5, 12-O-hexadecanoyl-4-deoxy-4α-16-hydroxyphorbol-13-acetate]
- activity for inducing IFN-γ production (NK92 cells; 8 μM, FIG. 7): had activity for inducing IFN-γ production
